From ChEMBL document CHEMBL1201862, “PubChem BioAssay data set” (2004)
The source made the active and inactive calls.

What was measured:
[1] = tested on: Streptococcus sp. 'group A'; assay: growth inhibition of control SK(-) GAS strain, dose response, counter-screen for streptokinase expression inhibitor project, luminescence, kanamycin, BacTiterGlo, confirmation (AID 1900); assay type: functional, organism-based
[2] = Counterscreen for AddAB inhibitors: absorbance-based bacterial cell-based high throughput dose response assay for inhibitors of bacterial viability. [Related pubchem assays (depositor defined):AID435030, AID449728, AID449731, AID488942, AID488955, AID488956]; assay type: functional
[3] = cytotoxicity in HPDE-C7 cells, cell-based, fluorescence, HTS (AID 430); assay type: functional; conditions: Homo sapiens
[4] = cytotoxicity in KRAS-transformed pancreatic duct cells, primary screen, cell-based, fluorescence, HTS (AID 431); assay type: functional; conditions: Homo sapiens;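 note: cell line used: HPDE-C7K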
Streptococcus = assay: Group A Streptococcus viability loss, dose response, counter-screen for streptokinase expression inhibitor project, luminescence, BacTiterGlo (AID 1915); assay type: functional, organism-based;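 note: potency for reduction of bacterial viability or growth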
Exodeoxyribonuclease V = Exodeoxyribonuclease V (Escherichia coli (strain K12), UniProt P04993+P07648+P08394); assay: E. coli RecBCD inhibitors, dose response, counter-screen for AddAB inhibitor project, absorbance, V66 E. coli, mutant T4 phage (AID 492957); assay type: functional, cell-based, Escherichia coli str. K-12 substr. MG1655
[5] = target: T1, Intestinal-type alkaline phosphatase (Homo sapiens, UniProt P09923); assay: human IAP activators, dose response, biochemical, luminescent, uHTS hits, set 2 (AID 488817); assay type: functional;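 note: potency of activators that raise enzyme activity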
[6] = Luminescence Cell-Based Dose Retest to Confirm Inhibitors of Cancer Stem Cells. [Related pubchem assays (depositor defined):AID2717, AID2721]; assay type: functional; conditions: Homo sapiens
[7] = target: T2, Alkaline phosphatase, tissue-nonspecific isozyme (Homo sapiens, UniProt P05186); assay: TNAP enzyme activators, dose response, selectivity assay for human IAP activator project, biochemical, TNAP isozyme, human IAP uHTS hits (AID 488886); assay type: functional;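 note: potency of compounds raising TNAP activity as a selectivity check on IAP activators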
T2 sequence (P05186 whole entry): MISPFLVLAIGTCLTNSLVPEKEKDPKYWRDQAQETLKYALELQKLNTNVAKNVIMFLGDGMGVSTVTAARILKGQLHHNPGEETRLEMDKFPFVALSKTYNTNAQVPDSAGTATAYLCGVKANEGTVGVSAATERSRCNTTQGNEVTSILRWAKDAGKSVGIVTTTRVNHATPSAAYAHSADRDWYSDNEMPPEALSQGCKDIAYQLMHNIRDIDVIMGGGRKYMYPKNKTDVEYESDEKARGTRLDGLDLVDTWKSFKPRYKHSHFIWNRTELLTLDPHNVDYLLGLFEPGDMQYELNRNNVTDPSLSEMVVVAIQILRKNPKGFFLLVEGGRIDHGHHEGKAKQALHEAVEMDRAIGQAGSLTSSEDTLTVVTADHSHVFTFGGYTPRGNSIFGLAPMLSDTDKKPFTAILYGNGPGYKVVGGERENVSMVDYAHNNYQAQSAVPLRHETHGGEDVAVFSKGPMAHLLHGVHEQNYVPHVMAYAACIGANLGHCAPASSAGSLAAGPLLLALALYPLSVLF

[8] = target: T1, Intestinal-type alkaline phosphatase; assay: human intestinal alkaline phosphatase activators, dose response, biochemical, luminescence, uHTS hits (AID 463120); assay type: functional
[9] = target: Intestinal-type alkaline phosphatase (Mus musculus, UniProt P24822); assay: PubChem AID 488875; assay type: functional
Mu-type opioid receptor [10] = target: T3, Mu-type opioid receptor (Homo sapiens, UniProt P35372); assay: MOR agonists by imaging, SAR follow-up, image-based (AID 2352); assay type: functional
Mu-type opioid receptor [11] = target: T3, Mu-type opioid receptor; assay: MOR antagonists, SAR follow-up, image-based (AID 2420); assay type: functional;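 note: compounds added before stimulation of receptor with agonist DAMGO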
[12] = target: T4, Kappa-type opioid receptor (Homo sapiens, UniProt P41145); assay: kappa opioid receptor blockers, cell-based, luminescence, beta-arrestin, SAR follow-up (AID 2285); assay type: functional
[13] = target: T5, Delta-type opioid receptor (Homo sapiens, UniProt P41143); assay: DOR agonists, SAR follow-up, image-based (AID 2370); assay type: functional
[14] = target: T4, Kappa-type opioid receptor; assay: KOR agonist analogs, imaging readout, SAR follow-up, image-based (AID 2359); assay type: functional
[15] = target: T5, Delta-type opioid receptor; assay: DOR antagonists, SAR follow-up, image-based (AID 2357); assay type: functional
[16] = target: T4, Kappa-type opioid receptor; assay: KOR antagonists by imaging, SAR follow-up, image-based (AID 2348); assay type: functional
Cytochrome P450 2D6 = Cytochrome P450 2D6 (Homo sapiens, UniProt P10635);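 note: CYP2D6 member of a cytochrome P450 panel assay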
[17] = target: T6, Nucleotide-binding oligomerization domain-containing protein 1 (Homo sapiens, UniProt Q9Y239); assay: NOD1 signaling inhibitors, SAR follow-up, revised (AID 2333); assay type: functional
T6 sequence (Q9Y239 whole entry): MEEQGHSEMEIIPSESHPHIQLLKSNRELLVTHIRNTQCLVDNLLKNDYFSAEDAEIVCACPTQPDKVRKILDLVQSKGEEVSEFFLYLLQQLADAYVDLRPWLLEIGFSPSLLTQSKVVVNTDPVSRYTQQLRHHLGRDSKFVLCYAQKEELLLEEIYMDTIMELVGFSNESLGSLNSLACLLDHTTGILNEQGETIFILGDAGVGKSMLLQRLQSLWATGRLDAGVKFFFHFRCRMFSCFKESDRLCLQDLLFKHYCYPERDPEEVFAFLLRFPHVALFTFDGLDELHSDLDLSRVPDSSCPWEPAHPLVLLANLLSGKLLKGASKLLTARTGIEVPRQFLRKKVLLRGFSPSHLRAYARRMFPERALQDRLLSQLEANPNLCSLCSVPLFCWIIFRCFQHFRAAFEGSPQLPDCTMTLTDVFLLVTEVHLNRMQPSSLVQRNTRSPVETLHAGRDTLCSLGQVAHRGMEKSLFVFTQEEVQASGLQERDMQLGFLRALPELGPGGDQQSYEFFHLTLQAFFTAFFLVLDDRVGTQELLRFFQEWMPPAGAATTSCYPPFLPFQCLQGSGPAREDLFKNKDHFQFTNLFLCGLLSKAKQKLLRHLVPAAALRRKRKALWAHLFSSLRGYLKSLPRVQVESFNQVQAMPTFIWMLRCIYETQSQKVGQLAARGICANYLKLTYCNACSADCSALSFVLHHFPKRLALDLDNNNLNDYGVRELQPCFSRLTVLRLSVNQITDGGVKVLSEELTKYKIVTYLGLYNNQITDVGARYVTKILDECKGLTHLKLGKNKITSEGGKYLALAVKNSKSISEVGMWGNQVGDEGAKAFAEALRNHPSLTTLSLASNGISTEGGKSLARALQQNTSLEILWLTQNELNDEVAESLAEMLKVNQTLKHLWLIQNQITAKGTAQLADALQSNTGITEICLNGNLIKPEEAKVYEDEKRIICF

HEK293 [18] = assay: cells; conditions: Homo sapiens
[19] = target: T7, Nucleotide-binding oligomerization domain-containing protein 2 (Homo sapiens, UniProt Q9HC29); assay: PubChem AID 2334; assay type: functional
Tumor necrosis factor [20] = target: T8, Tumor necrosis factor (Homo sapiens, UniProt P01375); assay: TNFa-triggered NF-kB activation inhibitors, SAR follow-up, cell-based, revised (AID 2337); assay type: functional
Tumor necrosis factor [21] = target: T8, Tumor necrosis factor; assay: TNFa-triggered NF-kB activation inhibitors, SAR follow-up, cell-based, set 3 (AID 2801); assay type: functional
Interleukin-8 [22] = target: T9, Interleukin-8 (Homo sapiens, UniProt P10145); assay: SAR analysis of GM-Tri-DAP induced IL-8 secretion in MCF-7/NOD1 cells - Set 2. [Related pubchem assays (depositor defined):AID1575, AID1578, AID2333]; assay type: functional, cell-based
HEK293 [23] = assay: SAR analysis of compounds that are cytotoxic to HEK293 - Set 3. [Related pubchem assays (depositor defined):AID1575, AID1578, AID1848, AID1849, AID2001, AID2333, AID2334, AID2335, AID2337, AID2469]; assay type: functional, cell-based; conditions: Homo sapiens
[24] = target: T6, Nucleotide-binding oligomerization domain-containing protein 1; assay: SAR analysis of compounds that inhibit NOD1 - Set 3. [Related pubchem assays (depositor defined):AID1566, AID1575, AID1578, AID1849, AID1852, AID2333, AID2335, AID2466]; assay type: functional
Interleukin-8 [25] = target: T9, Interleukin-8; assay: SAR analysis of Tumor necrosis factor alpha (TNF-alpha) induced IL-8 secretion in MCF-7/NOD1 cells - Set 2. [Related pubchem assays (depositor defined):AID1575, AID2250, AID2260]; assay type: functional, cell-based
[26] = target: T7, Nucleotide-binding oligomerization domain-containing protein 2; assay: NOD2 signaling inhibitors, analog potency, SAR follow-up, cell-based, set 3 (AID 2799); assay type: functional
[27] = target: T6, Nucleotide-binding oligomerization domain-containing protein 1; assay: SAR analysis of NF-kappaB dependent luciferase using DAP as an inducer - Set 2. [Related pubchem assays (depositor defined):AID1566, AID1575, AID1578, AID1579, AID1849, AID1852, AID2264]; assay type: functional
HEK293 [28] = assay: SAR analysis of compounds that are cytotoxic to HEK293 - Set 2. [Related pubchem assays (depositor defined):AID1575, AID1578, AID1849, AID2001, AID2333, AID2334, AID2335, AID2337, AID2800]; assay type: functional, cell-based; conditions: Homo sapiens
[29] = target: T7, Nucleotide-binding oligomerization domain-containing protein 2; assay: NOD2 inhibitors, SAR follow-up, set 2 (AID 2475); assay type: functional
[30] = target: Sphingosine 1-phosphate receptor 2 (Homo sapiens, UniProt O95136); assay: Late stage counterscreen assay for S1P4 antagonists: Fluorescence dose response cell-based screening assay for antagonists of the Sphingosine 1-Phosphate Receptor 2 (S1P2). [Related pubchem assays (depositor defined):AID1510, AID1524, AID1692, AID1853, AID2332, AID489009, AID489017]; assay type: functional
[31] = target: Sphingosine 1-phosphate receptor 3 (Homo sapiens, UniProt Q99500); assay: Late stage counterscreen assay for S1P4 antagonists: Fluorescence dose response cell-based screening assay for antagonists of the Sphingosine 1-Phosphate Receptor 3 (S1P3). [Related pubchem assays (depositor defined):AID1510, AID1524, AID1692, AID1853, AID2332, AID489009, AID489017]; assay type: functional
[32] = target: Sphingosine 1-phosphate receptor 1 (Homo sapiens, UniProt P21453); assay: Late stage counterscreen assay for S1P4 antagonists: Fluorescence dose response cell-based screening assay for antagonists of the Sphingosine 1-Phosphate Receptor 1 (S1P1). [Related pubchem assays (depositor defined):AID1510, AID1524, AID1692, AID1853, AID2332, AID489009, AID489017]; assay type: functional
[33] = target: Sphingosine 1-phosphate receptor 5 (Homo sapiens, UniProt Q9H228); assay: Late stage counterscreen assay for S1P4 antagonists: Fluorescence dose response cell-based screening assay for antagonists of the Sphingosine 1-Phosphate Receptor 5 (S1P5). [Related pubchem assays (depositor defined):AID1510, AID1524, AID1692, AID1853, AID2332, AID489009, AID489017]; assay type: functional
Sphingosine 1-phosphate receptor 5, sequence (Q9H228 whole entry): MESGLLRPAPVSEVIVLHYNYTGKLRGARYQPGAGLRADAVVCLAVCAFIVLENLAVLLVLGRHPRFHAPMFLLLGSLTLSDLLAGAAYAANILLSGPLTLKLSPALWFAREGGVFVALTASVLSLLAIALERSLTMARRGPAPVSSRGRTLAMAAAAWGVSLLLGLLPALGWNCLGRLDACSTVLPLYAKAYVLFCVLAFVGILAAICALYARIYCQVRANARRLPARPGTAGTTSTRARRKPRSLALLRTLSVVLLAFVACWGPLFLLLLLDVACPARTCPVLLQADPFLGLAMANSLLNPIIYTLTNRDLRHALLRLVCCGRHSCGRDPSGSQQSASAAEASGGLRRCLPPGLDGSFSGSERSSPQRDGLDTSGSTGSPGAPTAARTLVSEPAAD

T7 sequence (Q9HC29 whole entry, the tested form may be a part): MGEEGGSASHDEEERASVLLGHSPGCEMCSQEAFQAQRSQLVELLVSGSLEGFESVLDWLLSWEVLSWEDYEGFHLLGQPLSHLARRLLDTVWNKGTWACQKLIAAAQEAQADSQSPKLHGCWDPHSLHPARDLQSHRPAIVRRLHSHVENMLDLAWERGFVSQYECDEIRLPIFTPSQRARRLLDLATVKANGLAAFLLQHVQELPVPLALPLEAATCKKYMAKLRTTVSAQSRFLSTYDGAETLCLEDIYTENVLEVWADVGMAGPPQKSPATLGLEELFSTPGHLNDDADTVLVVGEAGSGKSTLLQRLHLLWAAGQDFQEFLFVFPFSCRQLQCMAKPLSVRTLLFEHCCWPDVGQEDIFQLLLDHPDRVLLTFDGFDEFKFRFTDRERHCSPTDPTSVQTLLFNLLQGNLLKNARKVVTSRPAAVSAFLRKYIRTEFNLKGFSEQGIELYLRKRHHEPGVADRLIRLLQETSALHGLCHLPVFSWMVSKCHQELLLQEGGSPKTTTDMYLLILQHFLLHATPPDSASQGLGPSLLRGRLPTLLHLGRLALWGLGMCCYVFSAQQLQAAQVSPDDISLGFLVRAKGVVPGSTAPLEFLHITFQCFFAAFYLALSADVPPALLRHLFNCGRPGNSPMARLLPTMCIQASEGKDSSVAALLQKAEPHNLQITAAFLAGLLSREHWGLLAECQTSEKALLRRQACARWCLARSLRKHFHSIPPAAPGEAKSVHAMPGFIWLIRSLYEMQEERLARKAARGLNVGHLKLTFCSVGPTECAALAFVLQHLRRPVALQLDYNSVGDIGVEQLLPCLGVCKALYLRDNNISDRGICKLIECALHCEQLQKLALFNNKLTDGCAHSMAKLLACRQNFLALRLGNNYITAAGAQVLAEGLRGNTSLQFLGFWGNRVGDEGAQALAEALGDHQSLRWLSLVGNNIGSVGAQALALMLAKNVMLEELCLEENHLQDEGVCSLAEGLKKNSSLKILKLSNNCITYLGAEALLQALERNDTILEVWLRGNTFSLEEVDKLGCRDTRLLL
T4 sequence (P41145 whole entry): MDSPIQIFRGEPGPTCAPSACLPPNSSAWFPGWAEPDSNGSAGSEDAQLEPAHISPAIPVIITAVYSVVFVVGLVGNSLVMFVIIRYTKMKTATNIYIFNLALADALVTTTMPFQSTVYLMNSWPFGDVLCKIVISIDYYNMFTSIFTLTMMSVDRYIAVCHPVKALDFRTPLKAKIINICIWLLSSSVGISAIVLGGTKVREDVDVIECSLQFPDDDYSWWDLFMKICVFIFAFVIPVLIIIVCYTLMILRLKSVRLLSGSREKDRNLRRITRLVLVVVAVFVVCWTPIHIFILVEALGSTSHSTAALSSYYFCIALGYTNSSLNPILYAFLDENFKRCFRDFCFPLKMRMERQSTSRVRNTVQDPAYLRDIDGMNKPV
T3 sequence (P35372 whole entry): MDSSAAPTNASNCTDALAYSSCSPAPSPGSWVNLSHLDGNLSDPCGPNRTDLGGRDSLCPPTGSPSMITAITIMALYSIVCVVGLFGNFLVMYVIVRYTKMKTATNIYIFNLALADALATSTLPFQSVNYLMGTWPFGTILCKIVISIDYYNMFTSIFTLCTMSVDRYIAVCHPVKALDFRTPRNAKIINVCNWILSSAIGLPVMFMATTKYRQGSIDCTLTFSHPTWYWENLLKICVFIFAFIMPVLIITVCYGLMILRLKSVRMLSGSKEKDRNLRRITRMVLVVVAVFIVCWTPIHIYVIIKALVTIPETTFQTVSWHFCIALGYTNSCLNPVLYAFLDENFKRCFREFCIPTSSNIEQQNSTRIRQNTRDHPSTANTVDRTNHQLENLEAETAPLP
T8 sequence (P01375 whole entry): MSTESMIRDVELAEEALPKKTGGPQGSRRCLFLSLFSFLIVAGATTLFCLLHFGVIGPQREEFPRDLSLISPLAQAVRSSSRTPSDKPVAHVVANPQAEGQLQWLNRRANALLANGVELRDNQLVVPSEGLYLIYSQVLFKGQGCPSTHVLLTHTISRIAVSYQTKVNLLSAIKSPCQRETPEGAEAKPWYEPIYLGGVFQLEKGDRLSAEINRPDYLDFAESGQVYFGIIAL
T5 sequence (P41143 whole entry): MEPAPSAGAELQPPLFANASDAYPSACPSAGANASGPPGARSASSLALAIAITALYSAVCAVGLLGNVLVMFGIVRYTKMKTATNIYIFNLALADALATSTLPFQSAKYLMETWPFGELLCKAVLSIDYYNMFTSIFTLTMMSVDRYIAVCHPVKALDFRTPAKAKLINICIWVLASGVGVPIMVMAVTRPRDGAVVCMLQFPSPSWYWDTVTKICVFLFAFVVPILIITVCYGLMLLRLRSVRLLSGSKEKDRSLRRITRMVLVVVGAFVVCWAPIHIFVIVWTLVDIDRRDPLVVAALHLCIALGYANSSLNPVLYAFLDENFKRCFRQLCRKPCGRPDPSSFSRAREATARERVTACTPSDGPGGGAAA
T9 sequence (P10145 whole entry): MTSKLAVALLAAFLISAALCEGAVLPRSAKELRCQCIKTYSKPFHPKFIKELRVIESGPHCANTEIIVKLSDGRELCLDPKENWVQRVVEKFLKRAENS
T1 sequence (P09923 whole entry): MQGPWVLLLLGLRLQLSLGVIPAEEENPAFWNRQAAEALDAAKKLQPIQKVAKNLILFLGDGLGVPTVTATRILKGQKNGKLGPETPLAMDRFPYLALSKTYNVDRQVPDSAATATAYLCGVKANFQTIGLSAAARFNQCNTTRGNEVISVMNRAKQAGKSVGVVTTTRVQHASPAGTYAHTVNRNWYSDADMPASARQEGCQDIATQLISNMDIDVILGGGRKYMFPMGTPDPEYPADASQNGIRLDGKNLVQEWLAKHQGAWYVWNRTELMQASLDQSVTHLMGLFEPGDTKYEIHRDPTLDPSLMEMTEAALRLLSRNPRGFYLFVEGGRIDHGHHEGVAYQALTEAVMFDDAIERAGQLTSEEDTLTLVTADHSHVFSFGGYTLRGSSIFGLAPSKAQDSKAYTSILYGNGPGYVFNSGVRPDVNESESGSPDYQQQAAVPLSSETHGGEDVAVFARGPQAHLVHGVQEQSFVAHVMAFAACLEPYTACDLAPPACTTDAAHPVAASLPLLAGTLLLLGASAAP
Intestinal-type alkaline phosphatase (Mus musculus, UniProt P24822), sequence (P24822 whole entry): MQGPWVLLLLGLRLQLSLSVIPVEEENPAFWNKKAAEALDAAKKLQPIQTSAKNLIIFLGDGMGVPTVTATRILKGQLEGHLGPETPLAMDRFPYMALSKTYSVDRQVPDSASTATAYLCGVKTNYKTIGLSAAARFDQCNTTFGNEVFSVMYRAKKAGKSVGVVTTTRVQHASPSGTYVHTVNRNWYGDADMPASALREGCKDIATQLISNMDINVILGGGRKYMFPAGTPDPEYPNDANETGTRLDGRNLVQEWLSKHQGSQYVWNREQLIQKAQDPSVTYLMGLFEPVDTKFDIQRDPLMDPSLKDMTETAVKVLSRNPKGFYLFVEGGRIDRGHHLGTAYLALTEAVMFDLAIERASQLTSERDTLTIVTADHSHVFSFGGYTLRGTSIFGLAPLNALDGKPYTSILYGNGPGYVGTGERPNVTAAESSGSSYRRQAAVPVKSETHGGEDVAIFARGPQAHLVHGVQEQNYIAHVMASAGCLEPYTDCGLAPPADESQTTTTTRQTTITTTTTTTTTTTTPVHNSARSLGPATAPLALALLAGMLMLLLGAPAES
Sphingosine 1-phosphate receptor 1, sequence (P21453 whole entry): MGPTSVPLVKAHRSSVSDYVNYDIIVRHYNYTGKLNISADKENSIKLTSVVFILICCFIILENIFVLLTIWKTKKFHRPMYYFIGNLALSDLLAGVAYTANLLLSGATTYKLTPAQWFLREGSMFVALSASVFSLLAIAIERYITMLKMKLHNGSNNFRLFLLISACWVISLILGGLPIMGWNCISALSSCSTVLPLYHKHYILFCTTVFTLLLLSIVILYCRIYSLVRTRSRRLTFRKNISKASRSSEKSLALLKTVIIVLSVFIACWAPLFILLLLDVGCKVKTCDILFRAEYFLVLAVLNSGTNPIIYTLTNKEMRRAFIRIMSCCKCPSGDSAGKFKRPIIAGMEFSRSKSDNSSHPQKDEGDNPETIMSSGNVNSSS
Sphingosine 1-phosphate receptor 3, sequence (Q99500 whole entry): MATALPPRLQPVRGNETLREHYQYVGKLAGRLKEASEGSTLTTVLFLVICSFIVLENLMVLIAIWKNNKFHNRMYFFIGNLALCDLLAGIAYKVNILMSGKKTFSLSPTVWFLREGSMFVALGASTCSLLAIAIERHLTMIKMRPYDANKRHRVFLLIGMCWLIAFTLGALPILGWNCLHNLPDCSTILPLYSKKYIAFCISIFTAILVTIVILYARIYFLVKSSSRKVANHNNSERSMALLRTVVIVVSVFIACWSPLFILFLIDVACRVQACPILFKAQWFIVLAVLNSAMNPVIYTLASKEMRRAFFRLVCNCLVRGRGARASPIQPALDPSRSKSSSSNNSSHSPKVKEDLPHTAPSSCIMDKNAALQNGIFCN

## O=C(Nc1nnc(-c2ccccc2)o1)c1ccc(Cl)cc1
[1]
  EC50: 0.26 µM (active)
[2]
  IC50: 47 µM (inactive)
[3]
  EC50: 3.14 µM (active)
[4]
  EC50: 3.15 µM (active)
Streptococcus
  EC50: 0.67 µM (active)
Exodeoxyribonuclease V
  IC50: 44.2 µM (inactive)

## Cc1ccc(-c2cc(C(=O)N/N=C/c3ccccc3O)[nH]n2)o1
[5]
  EC50: 6.54 µM (active)
[6]
  AC50: 8.36 µM (active)
[7]
  EC50: 3.89 µM (active)
[8]
  EC50: 5.71 µM (active)
[9]
  EC50: > 100 µM (inactive)

## O=C(NC(NC(=S)Nc1cccc(Br)c1)C(Cl)(Cl)Cl)OCc1ccccc1 (stereo unspecified)
Mu-type opioid receptor [10]
  EC50: > 32 µM (inactive)
Mu-type opioid receptor [11]
  IC50: > 32 µM (inactive)
[12]
  IC50: > 10 µM (inactive)
[13]
  EC50: > 32 µM (inactive)
[14]
  EC50: > 32 µM (inactive)
[15]
  IC50: > 32 µM (inactive)
[16]
  IC50: > 32 µM (inactive)

## Cc1cn([C@H]2C[C@H](O)[C@@H](COC(N)=O)O2)c(=O)[nH]c1=O
Cytochrome P450 2D6
  AC50: inconclusive

## CC(=O)Nc1nc2ccccc2n1S(=O)(=O)c1ccc(C)cc1
[17]
  IC50: 3.8 µM (active)
HEK293 [18]
  IC50: > 20 µM (inactive)
[19]
  IC50: > 20 µM (inactive)
Tumor necrosis factor [20]
  IC50: > 20 µM (inactive)

## C/C=C/Cn1c(SCc2ccccc2)nc2c1c(=O)[nH]c(=O)n2C
Tumor necrosis factor [21]
  IC50: > 20 µM (inactive)
Interleukin-8 [22]
  IC50: > 25 µM (inactive)
HEK293 [23]
  IC50: > 20 µM (inactive)
[24]
  IC50: 18.6 µM (active)
Interleukin-8 [25]
  IC50: > 25 µM (inactive)
[26]
  IC50: > 20 µM (inactive)
[27]
  IC50: > 25 µM (inactive)
HEK293 [28]
  IC50: > 20 µM (inactive)
[29]
  IC50: > 20 µM (inactive)

## COc1cccc(C)c1NC(=O)c1ccc(-c2cc(Cl)ccc2Cl)o1
[30]
  IC50: 4.77 µM (active)
[31]
  IC50: 9.87 µM (active)
[32]
  IC50: 9.31 µM (active)
[33]
  IC50: 11.2 µM (inactive)
